# Assay results published in ChEMBL document CHEMBL1933031, “Discovery and bioactivity of 4-(2-arylpyrido[3',2':3,4]pyrrolo[1,2-f][1,2,4]triazin-4-yl) morpholine derivatives as novel PI3K inhibitors” (Bioorg Med Chem Lett, 2012).
# Active and inactive are the calls of the source. The calls are words filed in the database; no cut-off is given here.
# Assays:
# [1] = target: T1, Ephrin type-B receptor 2 (Homo sapiens) (UniProt P29323); assay: Inhibition of EPH-B2 at 10 uM
# T1 sequence (whole entry): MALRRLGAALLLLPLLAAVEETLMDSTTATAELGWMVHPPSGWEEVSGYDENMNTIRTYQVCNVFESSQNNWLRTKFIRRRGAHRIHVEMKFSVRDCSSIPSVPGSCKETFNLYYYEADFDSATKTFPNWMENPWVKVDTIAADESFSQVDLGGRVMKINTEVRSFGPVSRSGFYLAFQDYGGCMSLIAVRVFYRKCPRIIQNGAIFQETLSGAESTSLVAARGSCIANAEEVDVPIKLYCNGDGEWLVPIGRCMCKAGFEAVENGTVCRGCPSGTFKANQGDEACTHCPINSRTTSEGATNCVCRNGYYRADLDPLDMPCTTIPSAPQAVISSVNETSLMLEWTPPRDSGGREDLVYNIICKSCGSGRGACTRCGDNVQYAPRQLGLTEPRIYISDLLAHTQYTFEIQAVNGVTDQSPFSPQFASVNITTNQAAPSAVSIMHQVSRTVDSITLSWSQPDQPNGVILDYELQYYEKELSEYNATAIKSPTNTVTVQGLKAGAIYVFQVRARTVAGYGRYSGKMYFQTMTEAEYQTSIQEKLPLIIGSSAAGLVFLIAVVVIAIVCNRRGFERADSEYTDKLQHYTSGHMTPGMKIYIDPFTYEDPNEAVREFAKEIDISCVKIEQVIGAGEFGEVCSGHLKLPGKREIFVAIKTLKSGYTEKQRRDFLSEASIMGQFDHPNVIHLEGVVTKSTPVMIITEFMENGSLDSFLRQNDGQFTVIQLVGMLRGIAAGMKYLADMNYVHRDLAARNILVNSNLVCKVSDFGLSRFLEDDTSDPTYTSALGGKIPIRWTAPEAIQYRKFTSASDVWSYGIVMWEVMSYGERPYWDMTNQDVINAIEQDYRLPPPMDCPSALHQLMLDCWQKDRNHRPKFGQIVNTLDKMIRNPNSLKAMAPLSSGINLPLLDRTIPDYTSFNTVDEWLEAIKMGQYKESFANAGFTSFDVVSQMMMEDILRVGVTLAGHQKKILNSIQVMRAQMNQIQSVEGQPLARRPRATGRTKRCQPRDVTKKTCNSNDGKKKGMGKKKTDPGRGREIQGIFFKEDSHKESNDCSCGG
# [2] = target: Proto-oncogene tyrosine-protein kinase Src (Homo sapiens) (UniProt P12931); conditions: at 10 µM
# Description: Inhibition of c-Src at 10 uM
# [3] = Inhibition of PI3K-mediated Akt phosphorylation at Ser473 at 3 uM by Western blot analysis
# MCF7 = assay: Antiproliferative activity against human MCF7 cells; assay type: functional, cell-based
# [4] = Cell cycle arrest in human Rh30 cells assessed as increase in G1 cell population at 1 to 10 uM by flow cytometric analysis; assay type: functional, cell-based; conditions: SJRH30
# [5] = Cell cycle arrest in human Rh30 cells assessed as increase in subG1 cell phase at 10 uM by flow cytometric analysis; assay type: functional, cell-based; conditions: SJRH30
# [6] = target: Mast/stem cell growth factor receptor Kit (Homo sapiens) (UniProt P10721); assay: Inhibition of c-Kit at 10 uM
# [7] = target: Macrophage-stimulating protein receptor (Homo sapiens) (UniProt Q04912); assay: Inhibition of RON at 10 uM
# [8] = target: Proto-oncogene tyrosine-protein kinase receptor Ret (Homo sapiens) (UniProt P07949); assay: Inhibition of RET at 10 uM
# [9] = target: Vascular endothelial growth factor receptor 2 (Homo sapiens) (UniProt P35968); conditions: at 10 µM
# Description: Inhibition of KDR at 10 uM
# [10] = target: Hepatocyte growth factor receptor (Homo sapiens) (UniProt P08581); assay: Inhibition of c-Met at 10 uM
# ECV-304 = assay: Antiproliferative activity against human ECV304 cells; assay type: functional, cell-based
# HT-29 = assay: Antiproliferative activity against human HT-29 cells; assay type: functional, cell-based
# [11] = target: Insulin-like growth factor 1 receptor (Homo sapiens) (UniProt P08069); assay: Inhibition of IGF1R at 10 uM
# [12] = target: Epidermal growth factor receptor (Homo sapiens) (UniProt P00533); conditions: at 10 µM
# Description: Inhibition of EGFR at 10 uM
# [13] = target: Platelet-derived growth factor receptor beta (Homo sapiens) (UniProt P09619); assay: Inhibition of PDGFRbeta at 10 uM
# [14] = Inhibition of PI3K-mediated p70S6K1 phosphorylation at Thr389 at 3 uM by Western blot analysis
# [15] = Inhibition of PI3K-mediated Akt pathway by Western blot analysis
# [16] = target: Receptor tyrosine-protein kinase erbB-2 (Homo sapiens) (UniProt P04626); assay: Inhibition of ErbB2 at 10 uM
# [17] = Inhibition of PI3K-mediated mTOR pathway by Western blot analysis
# [18] = target: Platelet-derived growth factor receptor alpha (Homo sapiens) (UniProt P16234); assay: Inhibition of PDGFRalpha at 10 uM
# [19] = target: Phosphatidylinositol 4,5-bisphosphate 3-kinase catalytic subunit alpha isoform (Homo sapiens, UniProt P42336); assay: Inhibition of PI3Kalpha by luminescent kinase assay
# [20] = Antiproliferative activity against human BEL-7402 cells
# Chain of Macrophage-stimulating protein receptor (Homo sapiens) (Q04912 25-304 limits assumed): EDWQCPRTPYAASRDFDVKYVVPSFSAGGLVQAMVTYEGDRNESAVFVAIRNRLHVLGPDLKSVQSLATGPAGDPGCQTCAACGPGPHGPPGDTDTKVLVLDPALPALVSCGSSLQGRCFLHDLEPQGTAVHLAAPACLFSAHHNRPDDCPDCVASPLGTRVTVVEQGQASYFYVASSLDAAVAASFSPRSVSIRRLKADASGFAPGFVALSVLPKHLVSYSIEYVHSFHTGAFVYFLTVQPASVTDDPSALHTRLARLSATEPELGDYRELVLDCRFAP
# Chain of Macrophage-stimulating protein receptor (Homo sapiens) (Q04912 310-1400 limits assumed): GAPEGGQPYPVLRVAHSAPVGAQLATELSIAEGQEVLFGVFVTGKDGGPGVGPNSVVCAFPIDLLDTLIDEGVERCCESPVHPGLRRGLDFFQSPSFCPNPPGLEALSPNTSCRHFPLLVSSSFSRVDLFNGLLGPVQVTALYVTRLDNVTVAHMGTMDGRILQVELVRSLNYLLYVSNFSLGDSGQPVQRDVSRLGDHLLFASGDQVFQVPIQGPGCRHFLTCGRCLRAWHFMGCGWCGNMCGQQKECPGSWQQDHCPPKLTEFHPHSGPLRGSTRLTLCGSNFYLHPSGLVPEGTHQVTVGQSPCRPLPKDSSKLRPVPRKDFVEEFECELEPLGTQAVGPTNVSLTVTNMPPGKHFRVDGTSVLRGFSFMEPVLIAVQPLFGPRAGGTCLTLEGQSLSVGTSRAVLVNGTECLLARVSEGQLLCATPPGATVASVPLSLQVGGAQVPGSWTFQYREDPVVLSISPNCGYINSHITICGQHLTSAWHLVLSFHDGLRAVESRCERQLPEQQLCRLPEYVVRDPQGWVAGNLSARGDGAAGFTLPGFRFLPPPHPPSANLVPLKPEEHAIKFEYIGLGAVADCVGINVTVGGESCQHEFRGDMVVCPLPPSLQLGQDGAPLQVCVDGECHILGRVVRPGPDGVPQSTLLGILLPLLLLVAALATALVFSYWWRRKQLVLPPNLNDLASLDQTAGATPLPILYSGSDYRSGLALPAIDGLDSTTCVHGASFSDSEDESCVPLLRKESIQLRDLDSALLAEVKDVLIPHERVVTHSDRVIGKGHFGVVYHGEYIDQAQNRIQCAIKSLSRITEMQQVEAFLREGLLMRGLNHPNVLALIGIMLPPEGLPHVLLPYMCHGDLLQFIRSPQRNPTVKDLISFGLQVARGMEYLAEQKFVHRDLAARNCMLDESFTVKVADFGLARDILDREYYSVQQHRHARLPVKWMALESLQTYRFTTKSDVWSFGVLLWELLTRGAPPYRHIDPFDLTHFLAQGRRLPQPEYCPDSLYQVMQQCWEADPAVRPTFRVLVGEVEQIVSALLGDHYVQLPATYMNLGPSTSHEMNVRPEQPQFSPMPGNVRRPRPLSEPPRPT
# Chain of Phosphatidylinositol 4,5-bisphosphate 3-kinase catalytic subunit alpha isoform (P42336 whole entry, canonical isoform): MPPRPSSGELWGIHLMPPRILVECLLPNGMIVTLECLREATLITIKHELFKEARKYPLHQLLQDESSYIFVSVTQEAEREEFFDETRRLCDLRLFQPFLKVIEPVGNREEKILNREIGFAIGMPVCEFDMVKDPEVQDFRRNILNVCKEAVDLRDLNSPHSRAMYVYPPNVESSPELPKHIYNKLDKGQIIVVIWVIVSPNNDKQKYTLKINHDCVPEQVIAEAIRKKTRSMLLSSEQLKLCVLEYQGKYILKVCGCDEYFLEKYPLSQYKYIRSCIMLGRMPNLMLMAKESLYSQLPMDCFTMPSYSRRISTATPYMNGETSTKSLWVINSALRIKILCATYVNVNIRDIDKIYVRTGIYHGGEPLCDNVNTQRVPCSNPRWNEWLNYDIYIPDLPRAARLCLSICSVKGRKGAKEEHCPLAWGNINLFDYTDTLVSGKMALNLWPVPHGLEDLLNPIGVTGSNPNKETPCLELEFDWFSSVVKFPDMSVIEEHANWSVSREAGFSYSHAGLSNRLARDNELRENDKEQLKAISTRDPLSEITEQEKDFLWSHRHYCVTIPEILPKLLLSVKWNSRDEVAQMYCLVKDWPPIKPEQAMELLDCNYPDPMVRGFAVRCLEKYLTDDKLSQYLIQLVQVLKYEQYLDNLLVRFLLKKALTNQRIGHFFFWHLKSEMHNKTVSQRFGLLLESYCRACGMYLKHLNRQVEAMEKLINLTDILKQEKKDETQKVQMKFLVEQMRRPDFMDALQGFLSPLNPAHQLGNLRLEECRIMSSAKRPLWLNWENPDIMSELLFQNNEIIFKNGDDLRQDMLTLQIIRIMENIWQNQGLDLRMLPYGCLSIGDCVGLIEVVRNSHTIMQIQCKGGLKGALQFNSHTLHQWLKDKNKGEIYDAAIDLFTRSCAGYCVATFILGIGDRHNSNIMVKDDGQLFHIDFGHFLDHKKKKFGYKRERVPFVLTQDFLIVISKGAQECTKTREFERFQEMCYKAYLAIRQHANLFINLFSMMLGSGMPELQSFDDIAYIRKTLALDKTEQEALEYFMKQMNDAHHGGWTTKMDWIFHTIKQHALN
# Chain of Proto-oncogene tyrosine-protein kinase Src (Homo sapiens) (P12931 2-536 limits assumed): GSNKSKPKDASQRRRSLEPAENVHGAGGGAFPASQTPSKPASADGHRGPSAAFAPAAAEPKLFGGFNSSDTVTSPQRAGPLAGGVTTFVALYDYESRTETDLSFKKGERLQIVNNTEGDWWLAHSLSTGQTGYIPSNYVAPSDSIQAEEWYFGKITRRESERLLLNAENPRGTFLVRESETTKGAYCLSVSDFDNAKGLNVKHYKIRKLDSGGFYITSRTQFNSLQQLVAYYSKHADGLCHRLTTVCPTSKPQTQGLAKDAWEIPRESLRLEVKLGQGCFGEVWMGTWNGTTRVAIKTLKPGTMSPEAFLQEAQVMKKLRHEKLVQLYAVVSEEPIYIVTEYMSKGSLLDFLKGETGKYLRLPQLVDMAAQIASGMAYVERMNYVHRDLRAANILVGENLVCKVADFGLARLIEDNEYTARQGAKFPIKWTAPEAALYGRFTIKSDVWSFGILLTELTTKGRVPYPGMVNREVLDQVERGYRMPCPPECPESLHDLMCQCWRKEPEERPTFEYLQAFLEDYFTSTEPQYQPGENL
# Chain of Receptor tyrosine-protein kinase erbB-2 (Homo sapiens) (P04626 whole entry): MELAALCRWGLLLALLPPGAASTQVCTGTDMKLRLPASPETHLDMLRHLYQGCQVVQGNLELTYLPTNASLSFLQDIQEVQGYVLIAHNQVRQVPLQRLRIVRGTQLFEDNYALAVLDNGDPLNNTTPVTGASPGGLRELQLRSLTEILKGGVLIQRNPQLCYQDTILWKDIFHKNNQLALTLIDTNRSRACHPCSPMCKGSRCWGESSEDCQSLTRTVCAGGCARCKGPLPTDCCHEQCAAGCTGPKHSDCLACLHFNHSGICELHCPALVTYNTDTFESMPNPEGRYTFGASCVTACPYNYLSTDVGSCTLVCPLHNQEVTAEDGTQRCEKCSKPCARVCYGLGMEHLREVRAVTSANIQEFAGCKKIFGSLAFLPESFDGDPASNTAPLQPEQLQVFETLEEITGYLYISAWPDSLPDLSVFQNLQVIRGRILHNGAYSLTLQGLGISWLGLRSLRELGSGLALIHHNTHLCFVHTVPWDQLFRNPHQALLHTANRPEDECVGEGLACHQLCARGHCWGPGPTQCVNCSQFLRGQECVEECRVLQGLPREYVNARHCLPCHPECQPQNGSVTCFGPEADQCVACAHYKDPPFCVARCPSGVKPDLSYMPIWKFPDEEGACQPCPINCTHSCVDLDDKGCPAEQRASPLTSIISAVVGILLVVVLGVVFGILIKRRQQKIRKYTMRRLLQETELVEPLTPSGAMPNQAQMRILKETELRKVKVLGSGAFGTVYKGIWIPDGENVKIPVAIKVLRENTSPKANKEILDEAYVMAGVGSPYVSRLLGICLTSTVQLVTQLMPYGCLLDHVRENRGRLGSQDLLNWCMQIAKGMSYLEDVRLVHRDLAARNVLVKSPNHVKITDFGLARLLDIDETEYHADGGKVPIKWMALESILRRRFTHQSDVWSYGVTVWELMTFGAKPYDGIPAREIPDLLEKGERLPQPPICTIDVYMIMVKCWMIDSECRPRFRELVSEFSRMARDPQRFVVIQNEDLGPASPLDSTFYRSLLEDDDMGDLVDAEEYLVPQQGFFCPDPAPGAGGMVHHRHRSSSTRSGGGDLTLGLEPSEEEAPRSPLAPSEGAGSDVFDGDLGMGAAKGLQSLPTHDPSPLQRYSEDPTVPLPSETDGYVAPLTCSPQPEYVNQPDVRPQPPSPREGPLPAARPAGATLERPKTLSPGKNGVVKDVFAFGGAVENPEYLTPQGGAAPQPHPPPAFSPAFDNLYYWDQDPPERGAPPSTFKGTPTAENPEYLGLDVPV
Structure (SMILES),inhibition [1],inhibition [2],inhibition [3],IC50 (MCF7),inhibition [6],inhibition [7],inhibition [8],inhibition [9],inhibition [10],IC50 (HT-29),inhibition [11],inhibition [12],inhibition [13],inhibition [14],inhibition [16],inhibition [18],IC50 [20],Activity [4],Activity [5],IC50 (ECV-304),further results
O=C(Oc1cccc(-c2nc(N3CCOCC3)c3cc4ncccc4n3n2)c1)c1ccncc1,53.8%,67.2%,inactive,20 µM,45.2%,27.2%,28.9%,35.4%,34.8%,28 µM,39.8%,6.2%,34.7%,inactive,23.3%,40%,13.3 µM,Active,Active,10 µM,Akt pathway inhibition (qualitative) [15]: Dose-dependent effect; mTOR pathway inhibition (qualitative) [17]: Dose-dependent effect; IC50 [19]: 0.421 µM
Oc1cccc(-c2nc(N3CCOCC3)c3oc4ncccc4c3n2)c1 [PI-103],,,,22.4 µM,,,,,,> 50 µM,,,,,,,7 µM,Active,,6.3 µM,
CCC(=O)Oc1cccc(-c2nc(N3CCOCC3)c3cc4ncccc4n3n2)c1,48.6%,52.8%,Active,18.7 µM,29%,17.6%,43%,25%,31.7%,30.4 µM,23.7%,26.8%,11.8%,Active,12.5%,13%,8.6 µM,Active,Active,4 µM,Akt pathway inhibition (qualitative) [15]: Dose-dependent effect; mTOR pathway inhibition (qualitative) [17]: Dose-dependent effect; IC50 [19]: 0.544 µM
N#C/C(=C\c1ccc(O)c(O)c1)C(=O)c1ccc(O)c(O)c1,,,,,,,,,,,82.2%,,,,,,,,,,
CCCC(CCC)C(=O)Oc1cccc(-c2nc(N3CCOCC3)c3cc4ncccc4n3n2)c1,49.2%,49.8%,Active,7.3 µM,24.9%,23.1%,14.4%,29.1%,29%,37.5 µM,32.7%,20.2%,13.6%,Active,25.6%,28.7%,5.6 µM,Active,Active,2.5 µM,Akt pathway inhibition (qualitative) [15]: Dose-dependent effect; mTOR pathway inhibition (qualitative) [17]: Dose-dependent effect; IC50 [19]: 0.0607 µM
CCCC(=O)Oc1cccc(-c2nc(N3CCOCC3)c3cc4ncccc4n3n2)c1,53%,48.2%,Active,6.1 µM,25.4%,7.4%,25.8%,25.6%,33.9%,16.4 µM,15.6%,16%,5.1%,Active,12.5%,14%,3.6 µM,Active,Active,1.4 µM,Akt pathway inhibition (qualitative) [15]: Dose-dependent effect; mTOR pathway inhibition (qualitative) [17]: Dose-dependent effect; IC50 [19]: 0.511 µM

# Further lines, with some results ahead:
inhibition [1],inhibition [2],inhibition [3],IC50 (MCF7),inhibition [6],inhibition [7],inhibition [8],inhibition [9],inhibition [10],IC50 (HT-29),inhibition [11],inhibition [12],inhibition [13],inhibition [14],inhibition [16],inhibition [18],IC50 [20],Structure (SMILES),Activity [4],Activity [5],IC50 (ECV-304),further results
89.2%,,,,,,,,,,,,,,,,,Cc1nc(Nc2ncc(C(=O)Nc3c(C)cccc3Cl)s2)cc(N2CCN(CCO)CC2)n1,,,,
44%,65.3%,Active,22.7 µM,49.4%,37%,37.8%,39.2%,43.8%,22.3 µM,35.2%,17.4%,42.4%,Active,10.9%,41.2%,13.1 µM,Oc1cccc(-c2nc(N3CCOCC3)c3cc4ncccc4n3n2)c1,Active,Active,6.7 µM,Akt pathway inhibition (qualitative) [15]: Dose-dependent effect; mTOR pathway inhibition (qualitative) [17]: Dose-dependent effect; IC50 [19]: 0.0336 µM
,,,,,52.2%,,,61.8%,,,,,,,,,Cc1[nH]c(/C=C2\C(=O)Nc3ccc(S(=O)(=O)N(C)c4cccc(Cl)c4)cc32)c(C)c1C(=O)N1CCN(C)CC1,,,,
37.2%,40%,Active,14.4 µM,24.7%,9.4%,19%,23.1%,29%,> 50 µM,33.4%,4.6%,0%,Active,7.1%,21.8%,12.1 µM,CC(=O)Oc1cccc(-c2nc(N3CCOCC3)c3cc4ncccc4n3n2)c1,Active,Active,3.8 µM,Akt pathway inhibition (qualitative) [15]: Dose-dependent effect; mTOR pathway inhibition (qualitative) [17]: Dose-dependent effect; IC50 [19]: 0.0497 µM
,,,,,,,,,,,,,,78%,,,CS(=O)(=O)CCNCc1ccc(-c2ccc3ncnc(Nc4ccc(OCc5cccc(F)c5)c(Cl)c4)c3c2)o1,,,,
35.8%,47.9%,inactive,12.8 µM,26.9%,4.2%,22.8%,24.7%,32.5%,21.6 µM,29.2%,11.8%,13.5%,inactive,23.6%,22.2%,9.3 µM,O=C(Oc1cccc(-c2nc(N3CCOCC3)c3cc4ncccc4n3n2)c1)c1ccco1,Active,Active,6 µM,Akt pathway inhibition (qualitative) [15]: Dose-dependent effect; mTOR pathway inhibition (qualitative) [17]: Dose-dependent effect; IC50 [19]: 0.425 µM
,,,,84.8%,,84.8%,,,,,,90.6%,,,93%,,CCN(CC)CCNC(=O)c1c(C)[nH]c(/C=C2\C(=O)Nc3ccc(F)cc32)c1C,,,,
53.4%,56.2%,Active,15.3 µM,18.9%,3.3%,31.9%,28.4%,32.8%,29.9 µM,41.1%,17.8%,6.3%,Active,21.3%,29.4%,7.9 µM,C=CC(=O)Oc1cccc(-c2nc(N3CCOCC3)c3cc4ncccc4n3n2)c1,Active,Active,4 µM,Akt pathway inhibition (qualitative) [15]: Dose-dependent effect; mTOR pathway inhibition (qualitative) [17]: Dose-dependent effect; IC50 [19]: 0.0478 µM
